Data reported in US10836758B2, “Acyl sulfonamide NaV1.7 inhibitors” (BRISTOL-MYERS SQUIBB COMPANY, priority 2016, dated 2020).
pIC50: −log10 of the molar value.

Molecular target: NaV1.7 (Homo sapiens (Human), UniProt Q15858)
Test: NaV1.7 IC50 of Table 1 (IonWorks Barracuda population patch clamp or ligand binding assay; table does not say which)
Assay type: cell-based
Details: HEK 293 cells expressing NaV1.7
Experimental: Ion Works Barracuda population patch clamp (PPC). PPC measurements were performed using an IonWorks Barracuda instrument (Molecular Devices Corporation, Union City, Calif.) using either PatchPlate™ PPC substrates (Molecular Devices Corporation) with 64 apertures per well. The ability to average currents from 64 recordings from each well greatly improves data consistency and recording success rates in the measurement of NaV1.7 mediated ionic currents. Calculated leak current was digitally subtracted from the total cell NaV1.7 current for each sample point acquired.
NaV1.7 currents were elicited by a voltage clamp protocol designed to bias the NaV1.7 channels to their inactivated state as follows. […] This was followed by a relatively brief hyperpolarization to −100 mv for 300 ms, then a 20 msec test pulse to −20 mV to elicit the NaV1.7 current used to measure the pharmacology of all test compounds. Compounds were incubated for 600 sec between the pre- and post-compound reads. […] The same solutions were used to record NaV1.5 currents, with the following voltage clamp protocol. NaV1.5 currents were elicited by a voltage clamp protocol designed to bias the NaV1.5 channels to their inactivated state as follows. […] This was followed by a relatively brief hyperpolarization to −100 mv for 30 ms, then a 20 msec test pulse to −10 mV to elicit the NaV1.5 current used to measure the pharmacology of all test compounds.
HEK 293 cells expressing NaV1.7 and NaV1.5 channels, were used (Essen Biosciences, Ann Arbor, Mich.). […] Cells were grown to 70% to 90% confluence in a flask and removed from the incubator (37° C., 5% CO2) 1 to 3 days after plating. Growth medium was aspirated from the culture flasks. […] Next a total of 2 mL TrypLE (Gibco) solution was added, and the flasks containing cells were sat for 3 min at RT, after which, the cells became visibly rounded and were easily dislodged from the bottom of the flask with a few brief taps on a solid surface. A total of 8 mL of media was added to the flask to inactivate the TrypLE, and the mixture was centrifuged at 910 rpm for 4 min. The cell supernatant was decanted, and the cell pellets were resuspended in 5-6 mL of external solution followed by gentle triturations using a 10 ml pipette, and transferred to a 15 ml conical tube and immediately brought to the IW Barracuda instrument.
Peak membrane currents were analyzed with IW Barracuda software and exported to Excel for further analysis. Concentration response curve fitting was performed with BMS in-house software. IC50 values were obtained by fits of the Hill equation to the average percent inhibition data plotted versus compound concentration. […] Results are reported in Table 1 (NaV1.7 Barra IC50 in nM and NaV1.5 Barra IC50 in nM).
hNaV1.7 binding affinities were determined with a filtration binding assay using purified membranes from HEK293 cells stably expressing hNaV1.7. HEK293 cells from a 10-stack cell culture flask (approximately 10^10 cells) were dissociated, frozen, and stored at −80° C. To prepare membranes, the frozen cell pellet was thawed and suspended in 6 ml hypotonic lysis buffer (50 mM HEPES, 0.1% mammalian protease inhibitor cocktail). 1 ml of resuspended cells was added to an additional 6 ml of lysis buffer and homogenized with 30 strokes of a tight pestle in a glass homogenizer. Homogenate was centrifuged at 1000×g for 10 minutes at 4° C. and the resulting supernatant was further centrifuged at 38,500×g for 60 minutes at 4° C. The resulting pellet was resuspended in binding buffer (50 mM HEPES, 130 mM NaCl, 5.4 mM KCl, 0.8 mM MgCl2, 5 mM glucose, pH 7.4) and needle homogenized with a 25 gauge needle. Protein concentration was determined with a BCA protein assay. Purified membranes were aliquoted, flash frozen in an ethyl alcohol dry ice bath, and stored at −80° C.

NaV1.7, sequence (Q15858 whole entry): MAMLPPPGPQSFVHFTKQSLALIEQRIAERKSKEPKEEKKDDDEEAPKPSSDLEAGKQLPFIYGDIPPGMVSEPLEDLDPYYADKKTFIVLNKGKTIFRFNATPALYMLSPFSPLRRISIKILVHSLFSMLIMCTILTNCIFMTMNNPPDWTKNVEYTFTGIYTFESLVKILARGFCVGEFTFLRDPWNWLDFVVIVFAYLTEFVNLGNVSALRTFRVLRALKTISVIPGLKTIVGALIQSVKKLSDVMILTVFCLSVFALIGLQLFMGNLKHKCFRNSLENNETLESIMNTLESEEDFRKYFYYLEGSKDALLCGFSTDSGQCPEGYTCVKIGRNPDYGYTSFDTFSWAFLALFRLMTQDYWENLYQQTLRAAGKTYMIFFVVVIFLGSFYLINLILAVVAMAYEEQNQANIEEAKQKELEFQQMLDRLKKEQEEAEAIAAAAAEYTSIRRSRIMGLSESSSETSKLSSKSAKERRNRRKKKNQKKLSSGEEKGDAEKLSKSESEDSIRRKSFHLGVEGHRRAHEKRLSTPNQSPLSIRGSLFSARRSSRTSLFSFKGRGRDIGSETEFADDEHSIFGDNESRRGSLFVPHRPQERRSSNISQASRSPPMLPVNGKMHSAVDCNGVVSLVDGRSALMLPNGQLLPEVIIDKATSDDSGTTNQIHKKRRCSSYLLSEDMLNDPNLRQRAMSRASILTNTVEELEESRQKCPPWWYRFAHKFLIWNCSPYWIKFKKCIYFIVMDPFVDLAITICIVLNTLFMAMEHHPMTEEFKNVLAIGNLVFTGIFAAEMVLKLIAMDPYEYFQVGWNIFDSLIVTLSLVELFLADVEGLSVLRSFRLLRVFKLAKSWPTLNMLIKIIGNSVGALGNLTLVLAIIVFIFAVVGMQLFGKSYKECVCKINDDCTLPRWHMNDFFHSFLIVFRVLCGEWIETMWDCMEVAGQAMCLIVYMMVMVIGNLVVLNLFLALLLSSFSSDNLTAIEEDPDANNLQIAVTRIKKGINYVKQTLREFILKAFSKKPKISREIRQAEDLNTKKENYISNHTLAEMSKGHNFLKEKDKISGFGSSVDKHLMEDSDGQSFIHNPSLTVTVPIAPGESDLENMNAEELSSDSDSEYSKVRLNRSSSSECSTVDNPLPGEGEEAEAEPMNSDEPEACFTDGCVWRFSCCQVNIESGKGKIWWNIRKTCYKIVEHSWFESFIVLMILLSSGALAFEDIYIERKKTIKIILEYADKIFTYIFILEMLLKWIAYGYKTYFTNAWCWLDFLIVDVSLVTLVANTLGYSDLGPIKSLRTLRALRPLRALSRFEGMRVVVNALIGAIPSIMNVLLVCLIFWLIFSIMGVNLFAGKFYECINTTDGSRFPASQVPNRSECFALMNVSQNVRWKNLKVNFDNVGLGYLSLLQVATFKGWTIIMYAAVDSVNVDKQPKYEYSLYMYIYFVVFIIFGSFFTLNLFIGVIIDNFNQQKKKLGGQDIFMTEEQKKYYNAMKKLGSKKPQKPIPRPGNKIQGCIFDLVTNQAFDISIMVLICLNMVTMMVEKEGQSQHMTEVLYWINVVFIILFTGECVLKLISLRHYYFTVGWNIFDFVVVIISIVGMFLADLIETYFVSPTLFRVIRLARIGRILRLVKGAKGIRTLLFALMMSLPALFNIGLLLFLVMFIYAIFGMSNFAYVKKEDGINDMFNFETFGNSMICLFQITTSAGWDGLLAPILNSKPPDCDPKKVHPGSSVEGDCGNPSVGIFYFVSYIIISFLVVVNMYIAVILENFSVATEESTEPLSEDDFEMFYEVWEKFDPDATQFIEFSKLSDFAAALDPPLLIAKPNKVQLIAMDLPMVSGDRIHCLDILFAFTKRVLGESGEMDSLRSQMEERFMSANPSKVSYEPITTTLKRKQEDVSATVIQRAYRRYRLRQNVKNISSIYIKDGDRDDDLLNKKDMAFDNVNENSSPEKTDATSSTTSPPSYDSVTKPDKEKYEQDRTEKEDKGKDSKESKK

| SMILES | pIC50 |
| --- | --- |
| COCCN1CCCC1CNc1cc(F)c(S(=O)(=O)Nc2nccs2)cc1Cl (centres unmarked) [Example 68, 5-chloro-2-fluoro-4-(((1-(2-methoxyethyl)pyrrolidin-2-yl)methyl)amino)-N-(thiazol-2-yl)benzenesulfonamide] | 6.86 |
| O=S(=O)(Nc1nccs1)c1cc(Cl)c(NCC2CCC(N3CCC3)CC2)cc1F (centres unmarked) [Example 25, 4-(((4-(Azetidin-1-yl)cyclohexyl)methyl)amino)-5-chloro-2-fluoro-N-(thiazol-2-yl)benzenesulfonamide] | 7.30 |
| CC1(CCOc2cc(F)c(S(=O)(=O)Nc3ncns3)cc2F)CCC(N)CC1 (single isomer, unassigned) [Example 56, 4-(2-((1s,4s)-4-Amino-1-methylcyclohexyl)ethoxy)-2,5-difluoro-N-(1,2,4-thiadiazol-5-yl)benzenesulfonamide] | 7.11 |
| NC1CCC(CCOc2cc(F)c(S(=O)(=O)Nc3ncns3)cc2F)CC1 (centres unmarked) [Example 60, 4-(2-(4-Aminocyclohexyl)ethoxy)-2,5-difluoro-N-(1,2,4-thiadiazol-5-yl)benzenesulfonamide] | 6.44 |
| N[C@H]1CC[C@@H](CNc2cc(F)c(S(=O)(=O)Nc3ncns3)cc2Cl)CC1 [Example 19, 4-((((1s,4s)-4-Aminocyclohexyl)methyl)amino)-5-chloro-2-fluoro-N-(1,2,4-thiadiazol-5-yl)benzenesulfonamide] | 7.80 |
| NC1CCCC(Nc2cc(F)c(S(=O)(=O)Nc3nccs3)cc2Cl)C1 (centres unmarked) [Example 28, 4-((3-Aminocyclohexyl)amino)-5-chloro-2-fluoro-N-(thiazol-2-yl)benzenesulfonamide] | 7.57 |
| NC1CCCC1CNc1cc(F)c(S(=O)(=O)Nc2nccs2)cc1Cl (centres unmarked) [Example 31, 4-(((2-Aminocyclopentyl)methyl)amino)-5-chloro-2-fluoro-N-(thiazol-2-yl)benzenesulfonamide] | 7.92 |
| NC1CCC(CCOc2cc(F)c(S(=O)(=O)Nc3ncns3)cc2F)(c2ccccc2)CC1 (single isomer, unassigned) [Example 49, 4-(2-(4-amino-1-phenylcyclohexyl)ethoxy)-2,5-difluoro-N-(1,2,4-thiadiazol-5-yl)benzenesulfonamide] | 7.82 |
| O=S(=O)(Nc1ncns1)c1cc(F)c(OCCC2(c3ccc(Cl)c(F)c3)CCNCC2)cc1F [Example 46, 4-(2-(4-(4-Chloro-3-fluorophenyl)piperidin-4-yl)ethoxy)-2,5-difluoro-N-(1,2,4-thiadiazol-5-yl)benzenesulfonamide] | 6.96 |
| NC1(CCNc2cc(F)c(S(=O)(=O)Nc3nccs3)cc2Cl)CCCCC1 [Example 29, 4-((2-(1-Aminocyclohexyl)ethyl)amino)-5-chloro-2-fluoro-N-(thiazol-2-yl)benzenesulfonamide] | 7.13 |
| O=S(=O)(Nc1nccs1)c1cc(Cl)c(NCC2(CN3CCCC3)CC2)cc1F [Example 12, 5-Chloro-2-fluoro-4-(((1-(pyrrolidin-1-ylmethyl)cyclopropyl)methyl)amino)-N-(thiazol-2-yl)benzenesulfonamide] | 7.96 |
| O=S(=O)(Nc1ncns1)c1cc(Cl)c(OCCC2(c3ccc(Cl)c(F)c3)CCNCC2)cc1F [Example 47, 5-Chloro-4-(2-(4-(4-chloro-3-fluorophenyl)piperidin-4-yl)ethoxy)-2-fluoro-N-(1,2,4-thiadiazol-5-yl)benzenesulfonamide] | 7.48 |
| NC1CCC(COc2cc(F)c(S(=O)(=O)Nc3ncns3)cc2F)(Cc2ccc(Cl)c(F)c2)CC1 (single isomer, unassigned) [Example 61, 4-((4-amino-1-(4-chloro-3-fluorobenzyl)cyclohexyl)methoxy)-2,5-difluoro-N-(1,2,4-thiadiazol-5-yl)benzenesulfonamide] | 7.28 |
| O=S(=O)(Nc1nccs1)c1cc(Cl)c(NC2CCC3CNCC32)cc1F (centres unmarked) [Example 65, 5-chloro-2-fluoro-4-((octahydrocyclopenta[c]pyrrol-4-yl)amino)-N-(thiazol-2-yl)benzenesulfonamide] | 7.01 |
| O=S(=O)(Nc1nccs1)c1cc(Cl)c(NCC2CCC(N3CCOCC3)CC2)cc1F (centres unmarked) [Example 26, 5-Chloro-2-fluoro-4-(((4-morpholinocyclohexyl)methyl)amino)-N-(thiazol-2-yl)benzenesulfonamide] | 7.57 |
| O=S(=O)(Nc1nccs1)c1cc(Cl)c(NCCC2CCCNC2)cc1F (centres unmarked) [Example 2, 5-Chloro-2-fluoro-4-((2-(piperidin-3-yl)ethyl)amino)-N-(thiazol-2-yl)benzenesulfonamide] | 7.92 |
| O=S(=O)(Nc1nccs1)c1cc(Cl)c(N[C@H]2CC[C@@H](O)CC2)cc1F [Example 36, 5-Chloro-2-fluoro-4-(((1s,4s)-4-hydroxycyclohexyl)amino)-N-(thiazol-2-yl)benzenesulfonamide] | 6.68 |
| O=S(=O)(Nc1nccs1)c1cc(Cl)c(NC[C@@H]2CCCNC2)cc1F [Example 43, (R)-5-Chloro-2-fluoro-4-((piperidin-3-ylmethyl)amino)-N-(thiazol-2-yl)benzenesulfonamide] | 6.57 |
| O=S(=O)(Nc1nccs1)c1cc(Cl)c(N2CCC(CO)C2)cc1F (centres unmarked) [Example 70, 5-chloro-2-fluoro-4-(3-(hydroxymethyl)pyrrolidin-1-yl)-N-(thiazol-2-yl)benzenesulfonamide] | 6.09 |
| CC1CC(C)(C)C(CNc2cc(F)c(S(=O)(=O)Nc3nccs3)cc2Cl)C1N (centres unmarked) [Example 30, 4-(((5-Amino-2,2,4-trimethylcyclopentyl)methyl)amino)-5-chloro-2-fluoro-N-(thiazol-2-yl)benzenesulfonamide] | 7.92 |
